Data published in ChEMBL document CHEMBL1127991, “Design, synthesis and evaluation of dual domain FKBP ligands” (Bioorg Med Chem Lett, 1994).

Experiments:
[1] = biological target: T1, Peptidyl-prolyl cis-trans isomerase FKBP1A (Homo sapiens, UniProt P62942); assay: Compound was tested for inhibitory activity against FK506 binding protein 12 (FKBP12); conditions: read-out: Ki app
[2] = Immunosuppressant-like activity in an in vitro splenocyte mitogenesis assay at concentration up to 10 uM; ND means not detected; format: functional
[3] = biological target: T1, Peptidyl-prolyl cis-trans isomerase FKBP1A; assay: Compound was tested for inhibitory activity against FK506 binding protein 12 (FKBP12); Value ranges from 190-900 nM; conditions: read-out: Ki app
[4] = Immunosuppressant-like activity in an in vitro splenocyte mitogenesis assay at concentration up to 10 uM; format: functional

T1 sequence (P62942 whole entry): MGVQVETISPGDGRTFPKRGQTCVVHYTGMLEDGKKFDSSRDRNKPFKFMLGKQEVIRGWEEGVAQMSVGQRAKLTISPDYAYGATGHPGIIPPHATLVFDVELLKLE

Row | SMILES | Ki [1] [nM] | IC50 [2] | other results
1 | CCC(C)(C)C(=O)C(=O)N1CCCC[C@H]1C(=O)O[C@H](CCc1ccccc1)C(C)(C)/C=C/C(=O)c1ccccc1 |  | Not detected | Ki [3]: 190 nM
2 | CCCC(CCC)C(=O)/C=C/C(C)(C)[C@@H](CCc1ccccc1)OC(=O)[C@@H]1CCCCN1C(=O)C(=O)C(C)(C)CC |  | Not detected | Ki [3]: 190 nM
3 | C=CC[C@@H]1/C=C(\C)C[C@H](C)C(=O)OCCCC(C)(C)C(=O)C(=O)N2CCCC[C@H]2C(=O)OCCCOC1=O | 400 |  | 
4 | C=CC[C@@H]1/C=C(\C)C[C@H](C)C(=O)OCC(C)(C)C(=O)C(=O)N2CCCC[C@H]2C(=O)O[C@H](CCc2ccccc2)[C@H](C)COC1=O | 6000 |  | 
5 | CCC(C)(C)C(=O)C(=O)N1CCCC[C@H]1C(=O)O[C@H](CCc1ccccc1)C(C)(C)/C=C/C(=O)C1CCCCC1 | 340 | Not detected | 
6 | CC1(C)COC(=O)CCCCC(=O)/C=C/C(C)(C)[C@@H](CCc2ccccc2)OC(=O)[C@@H]2CCCCN2C(=O)C1=O | 175 |  | 
7 | C=CC[C@@H]1/C=C(\C)C[C@H](C)C(=O)OCCCC(C)(C)C(=O)C(=O)N2CCCC[C@H]2C(=O)O[C@H](CCc2ccccc2)[C@H](C)COC1=O | > 5000 |  | 
8 | C=CC[C@@H]1/C=C(\C)C[C@H](C)C[C@H](OC)[C@H]2O[C@@](O)(C(=O)C(=O)N3CCCC[C@H]3C(=O)O[C@H](/C(C)=C/[C@@H]3CC[C@@H](O)[C@H](OC)C3)[C@H](C)[C@@H](O)CC1=O)[C@H](C)C[C@@H]2OC [TACROLIMUS ANHYDROUS] |  |  | IC50 [4]: 1 nM

The next lines start with results.

Row | Ki [1] [nM] | IC50 [2] | SMILES | other results
9 | 5 | Not detected | CCC(C)(C)C(=O)C(=O)N1CCCC[C@H]1C(=O)O[C@H](CCc1ccccc1)c1cccc(C(=O)c2ccccc2)c1 | 
10 | 20 |  | CC1(C)COC(=O)CCCCCCCCC(=O)c2cccc(c2)C(CCc2ccccc2)OC(=O)[C@@H]2CCCCN2C(=O)C1=O (stereo partly drawn) | 
11 | 25 |  | CC1(C)COC(=O)CCCCC(=O)CCC(C)(C)[C@@H](CCc2ccccc2)OC(=O)[C@@H]2CCCCN2C(=O)C1=O | 
12 | 5 | Not detected | C=CCN(CC=C)C(=O)c1cccc([C@@H](CCc2ccccc2)OC(=O)[C@@H]2CCCCN2C(=O)C(=O)C(C)(C)CC)c1 | 
13 | 130 |  | C=CC[C@@H]1/C=C(\C)C[C@H](C)C(=O)OCC(C)(C)C(=O)C(=O)N2CCCC[C@H]2C(=O)OCCCOC1=O | 
